Assay results published in patent publication US6355799B1, “Substituted benzene compounds, process for their preparation, and herbicidal and defoliant compositions containing them” (ISK Americas Incorporated, priority 1997, dated 2002).

How the values were obtained:
Format in all cases: in vivo
[1] = system: upland rice (Oryza sp., var. Tebonnet, RICE); test: Post-emerge test, crop safety; details: post-emerge, 14 days after application, rating scale 0-100
In short: (§1)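 Herbicidal damage is scored 0 (none) to 100 (complete plant death) two weeks after a simulated field spray. Rates span 15–1000 g ai/ha, delivered in acetone at 187 l/ha. For post-emergence treatments, plants have 2–3 leaves and the spray carries 0.25% v/v non-ionic surfactant.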

[2] = system: field corn (Zea mays L., var. Dekalb 535, CORN); test: Post-emerge test, crop safety; details: post-emerge, 14 days after application, rating scale 0-100
In short: as §1

[3] = system: johnsongrass (Sorghum halepense, SORHA); test: Pre-emerge test, greenhouse herbicide activity screening; details: rated 14 days after application, 0 = no damage, 100 = complete death
In short: as §1

[4] = system: lambsquarters (Chenopodium album, CHEAL); test: as above; details: rated 14 days after application, 0 = no damage, 100 = complete death
In short: as §1

[5] = system: sicklepod (Cassia obtusifolia, CASOB); test: as above; details: rated 14 days after application, 0 = no damage, 100 = complete death
In short: as §1

[6] = system: ivyleaf morningglory (Ipomoea hederacea, IPOHE); test: as above; details: rated 14 days after application, 0 = no damage, 100 = complete death
In short: as §1

[7] = system: barnyardgrass (Echinochloa crus-galli, ECHCG); test: as above; details: rated 14 days after application, 0 = no damage, 100 = complete death
In short: as §1

[8] = system: green foxtail (Setaria viridis, SETVI); test: as above; details: rated 14 days after application, 0 = no damage, 100 = complete death
In short: as §1

[9] = system: velvetleaf (Abutilon theophrasti, ABUTH); test: as above; details: rated 14 days after application, 0 = no damage, 100 = complete death
In short: as §1

[10] = system: large crabgrass (Digitaria sanguinalis, DIGSA); test: as above; details: rated 14 days after application, 0 = no damage, 100 = complete death
In short: as §1

[11] = system: johnsongrass (Sorghum halepense, SORHA); test: Post-emerge test, greenhouse herbicide activity screening; details: post-emerge, 14 days after application, rating scale 0-100
In short: (§2)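 Compounds in acetone were track-sprayed at 187 l/ha, 15–1000 g ai/ha, onto sandy loam pots. Pre-emerge seeds were sown one day before spraying, with surface watering afterwards. Post-emerge plants were at the 2–3 leaf stage and sprayed with 0.25% v/v non-ionic surfactant. Injury was rated 0–100 at 14 days.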

[12] = system: common ragweed (Ambrosia artemisizfolia L., AMBEL); test: as above; details: post-emerge, 14 days after application, rating scale 0-100
In short: as §2

[13] = system: lambsquarters (Chenopodium album, CHEAL); test: as above; details: post-emerge, 14 days after application, rating scale 0-100
In short: as §2

[14] = system: redroot pigweed (Amaranthus retroflexus, AMARE); test: as above; details: post-emerge, 14 days after application, rating scale 0-100
In short: as §2

[15] = system: sicklepod (Cassia obtusifolia, CASOB); test: as above; details: post-emerge, 14 days after application, rating scale 0-100
In short: as §2

[16] = system: ivyleaf morningglory (Ipomoea hederacea, IPOHE); test: as above; details: post-emerge, 14 days after application, rating scale 0-100
In short: as §2

[17] = system: barnyardgrass (Echinochloa crus-galli, ECHCG); test: as above; details: post-emerge, 14 days after application, rating scale 0-100
In short: as §2

[18] = system: green foxtail (Setaria viridis, SETVI); test: as above; details: post-emerge, 14 days after application, rating scale 0-100
In short: as §2

[19] = system: velvetleaf (Abutilon theophrasti, ABUTH); test: as above; details: post-emerge, 14 days after application, rating scale 0-100
In short: as §2

[20] = system: large crabgrass (Digitaria sanguinalis, DIGSA); test: as above; details: post-emerge, 14 days after application, rating scale 0-100
In short: as §2

[21] = system: upland rice (Oryza sp., var. Tebonnet, RICE); test: Pre-emerge test, crop safety; details: rated 14 days after application, 0 = no damage, 100 = complete death
In short: (§3)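 Fourteen days after spraying, crop and weed injury was graded visually from 0, no effect, to 100, every plant dead. Test substances were dissolved in acetone and applied at 15–1000 g ai/ha with a flat-fan nozzle. Application was either pre-emergence, one day after sowing, or post-emergence at the 2–3 leaf stage.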

[22] = system: field corn (Zea mays L., var. Dekalb 535, CORN); test: Pre-emerge test, crop safety; details: rated 14 days after application, 0 = no damage, 100 = complete death
In short: as §3

[23] = system: redroot pigweed (Amaranthus retroflexus, AMARE); test: Pre-emerge test, greenhouse herbicide activity screening; details: rated 14 days after application, 0 = no damage, 100 = complete death
In short: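 Visual ratings on a 0-100 scale (0 no damage, 100 all plants dead) were taken at 14 days after treatment. Rates of 15-1000 g ai/ha in acetone, 187 l/ha, were sprayed onto soil one day after planting (pre-emerge) or onto 2-3 leaf plants with 0.25% v/v surfactant (post-emerge).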

COc1c(Cl)cc(F)c(-n2c(=O)cc(C(F)(F)F)n(C)c2=O)c1NC(=O)c1cnc2ccccc2n1 [2-105]
phytotoxicity rating RICE ([1]; 63 g ai/ha): 0
phytotoxicity rating RICE ([1]; 250 g ai/ha): 30
phytotoxicity rating CORN ([2]; 63 g ai/ha): 0
phytotoxicity rating CORN ([2]; 250 g ai/ha): 10
Pre-emerge Herbicidal Activity, phytotoxicity rating (0-100), SORHA ([3]; 63 g ai/ha): 40
Pre-emerge Herbicidal Activity, phytotoxicity rating (0-100), SORHA ([3]; 250 g ai/ha): 95
Pre-emerge Herbicidal Activity, phytotoxicity rating (0-100), CHEAL ([4]; 63 g ai/ha): 100
Pre-emerge Herbicidal Activity, phytotoxicity rating (0-100), CHEAL ([4]; 250 g ai/ha): 100
Pre-emerge Herbicidal Activity, phytotoxicity rating (0-100), CASOB ([5]; 63 g ai/ha): 30
Pre-emerge Herbicidal Activity, phytotoxicity rating (0-100), CASOB ([5]; 250 g ai/ha): 60
Pre-emerge Herbicidal Activity, phytotoxicity rating (0-100), IPOHE ([6]; 63 g ai/ha): 20
Pre-emerge Herbicidal Activity, phytotoxicity rating (0-100), IPOHE ([6]; 250 g ai/ha): 95
Pre-emerge Herbicidal Activity, phytotoxicity rating (0-100), ECHCG ([7]; 63 g ai/ha): 20
Pre-emerge Herbicidal Activity, phytotoxicity rating (0-100), ECHCG ([7]; 250 g ai/ha): 100
Pre-emerge Herbicidal Activity, phytotoxicity rating (0-100), SETVI ([8]; 63 g ai/ha): 100
Pre-emerge Herbicidal Activity, phytotoxicity rating (0-100), SETVI ([8]; 250 g ai/ha): 100
Pre-emerge Herbicidal Activity, phytotoxicity rating (0-100), ABUTH ([9]; 63 g ai/ha): 100
Pre-emerge Herbicidal Activity, phytotoxicity rating (0-100), ABUTH ([9]; 250 g ai/ha): 100
Pre-emerge Herbicidal Activity, phytotoxicity rating (0-100), DIGSA ([10]; 63 g ai/ha): 90
Pre-emerge Herbicidal Activity, phytotoxicity rating (0-100), DIGSA ([10]; 250 g ai/ha): 100
phytotoxicity rating SORHA ([11]; 63 g ai/ha): 0
phytotoxicity rating SORHA ([11]; 250 g ai/ha): 30
phytotoxicity rating AMBEL ([12]; 63 g ai/ha): 100
phytotoxicity rating AMBEL ([12]; 250 g ai/ha): 100
phytotoxicity rating CHEAL ([13]; 63 g ai/ha): 80
phytotoxicity rating CHEAL ([13]; 250 g ai/ha): 90
phytotoxicity rating AMARE ([14]; 63 g ai/ha): 100
phytotoxicity rating AMARE ([14]; 250 g ai/ha): 100
phytotoxicity rating CASOB ([15]; 63 g ai/ha): 80
phytotoxicity rating CASOB ([15]; 250 g ai/ha): 80
phytotoxicity rating IPOHE ([16]; 63 g ai/ha): 100
phytotoxicity rating IPOHE ([16]; 250 g ai/ha): 100
phytotoxicity rating ECHCG ([17]; 63 g ai/ha): 10
phytotoxicity rating ECHCG ([17]; 250 g ai/ha): 30
phytotoxicity rating SETVI ([18]; 63 g ai/ha): 70
phytotoxicity rating SETVI ([18]; 250 g ai/ha): 100
phytotoxicity rating ABUTH ([19]; 63 g ai/ha): 100
phytotoxicity rating ABUTH ([19]; 250 g ai/ha): 100
phytotoxicity rating DIGSA ([20]; 63 g ai/ha): 0
phytotoxicity rating DIGSA ([20]; 250 g ai/ha): 10
Pre-emerge phytotoxicity rating (0-100), crop damage, RICE ([21]; 63 g ai/ha): 50
Pre-emerge phytotoxicity rating (0-100), crop damage, RICE ([21]; 250 g ai/ha): 70
Pre-emerge phytotoxicity rating (0-100), crop damage, CORN ([22]; 63 g ai/ha): 10
Pre-emerge phytotoxicity rating (0-100), crop damage, CORN ([22]; 250 g ai/ha): 10
Pre-emerge Herbicidal Activity, phytotoxicity rating (0-100), AMARE ([23]; 63 g ai/ha): 100
Pre-emerge Herbicidal Activity, phytotoxicity rating (0-100), AMARE ([23]; 250 g ai/ha): 100
